Reference: patent publication US9062071B2, “Substituted piperidines as HDM2 inhibitors” (Merck Sharp & Dohme Corp, priority 2011, dated 2015)

target: HDM2 protein (Homo sapiens, UniProt Q00987); assay: fluorescence polarization screening assay (FP IC50); assay type: binding; settings: class symbols
Procedure: The compounds were evaluated to determine activity at the HDM2 protein by known methods such as the fluorescence polarization screening assay that measures the inhibitory concentration that achieves 50% of maximal activity (FP IC50) and the dissociation constant for inhibitor binding (FP Ki). [Zhang et al., J. Analytical Biochemistry 331: 138-146 (2004)].

Chain of HDM2 protein (Q00987 whole entry): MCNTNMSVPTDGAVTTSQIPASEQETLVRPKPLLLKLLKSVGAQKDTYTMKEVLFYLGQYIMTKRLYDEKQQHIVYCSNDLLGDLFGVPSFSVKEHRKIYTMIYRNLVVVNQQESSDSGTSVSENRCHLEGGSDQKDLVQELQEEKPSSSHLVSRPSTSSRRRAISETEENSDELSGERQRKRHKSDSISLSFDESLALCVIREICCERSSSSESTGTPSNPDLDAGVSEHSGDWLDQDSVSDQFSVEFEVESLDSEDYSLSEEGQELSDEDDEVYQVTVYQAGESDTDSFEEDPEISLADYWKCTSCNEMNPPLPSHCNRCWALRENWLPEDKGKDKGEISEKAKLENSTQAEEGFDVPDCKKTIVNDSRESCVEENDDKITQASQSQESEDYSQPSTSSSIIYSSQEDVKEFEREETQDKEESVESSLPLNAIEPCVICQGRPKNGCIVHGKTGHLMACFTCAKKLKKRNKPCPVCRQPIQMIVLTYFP

**Q.** For CCC[C@H]1N(C(=O)c2ncccc2C(F)(F)F)CCC[C@@]1(Oc1csc(C(F)(F)F)c1)C(=O)N1CCc2cc(Br)ccc2C1CC(=O)O (stereo partly drawn) [Compound A70, (6-bromo-2-{[(2R,3S)-2-propyl-1-{[3-(trifluoromethyl)pyridin-2-yl]carbonyl}-3-{[5-(trifluoromethyl)thiophen-3-yl]oxy}piperidin-3-yl]carbonyl}-1,2,3,4-tetrahydroisoquinolin-1-yl)acetic acid], which IC50 is on record?
**A.** 1 to 100 nM

**Q.** Which IC50 does the source give for CCC[C@H]1N(C(=O)c2ncccc2C(F)(F)F)CCC[C@@]1(Oc1csc(C(F)(F)F)c1)C(=O)N1CCc2cc(Cl)ccc2C1CC(C)(C)C#N (stereo partly drawn) [Compound A71, 3-(6-chloro-2-{[(2R,3S)-2-propyl-1-{[3-(trifluoromethyl)pyridin-2-yl]carbonyl}-3-{[5-(trifluoromethyl)thiophen-3-yl]oxy}piperidin-3-yl]carbonyl}-1,2,3,4-tetrahydroisoquinolin-1-yl)-2,2-dimethylpropanenitrile] here?
**A.** 101 to 20000 nM

**Q.** CCC[C@H]1N(C(=O)c2ncccc2C(F)(F)F)CCC[C@@]1(Oc1csc(C(F)(F)F)c1)C(=O)N1CCc2cc(Br)ccc2C1CC(=O)O (stereo partly drawn) [Compound A72, (6-bromo-2-{[(2R,3S)-2-propyl-1-{[3-(trifluoromethyl)pyridin-2-yl]carbonyl}-3-{[5-(trifluoromethyl)thiophen-3-yl]oxy}piperidin-3-yl]carbonyl}-1,2,3,4-tetrahydroisoquinolin-1-yl)acetic acid] was tested. Which IC50 did it give?
**A.** 1 to 100 nM

**Q.** How did the IC50 turn out when CCC[C@H]1N(C(=O)c2ncccc2C(F)(F)F)CCC[C@@]1(Oc1csc(C(F)(F)F)c1)C(=O)N1CCc2cc(Cl)ccc2C1CCCC(=O)O (stereo partly drawn) [Compound A73, 4-(6-chloro-2-{[(2R,3S)-2-propyl-1-{[3-(trifluoromethyl)pyridin-2-yl]carbonyl}-3-{[5-(trifluoromethyl)thiophen-3-yl]oxy}piperidin-3-yl]carbonyl}-1,2,3,4-tetrahydroisoquinolin-1-yl)butanoic acid] was run?
**A.** 1 to 100 nM

**Q.** How did the IC50 turn out when CCC[C@H]1N(C(=O)c2ncccc2C(F)(F)F)CCC[C@@]1(Oc1csc(C(F)(F)F)c1)C(=O)N1CCc2cc(Cl)ccc2C1CCCC(=O)O (stereo partly drawn) [Compound A74, 4-(6-chloro-2-{[(2R,3S)-2-propyl-1-{[3-(trifluoromethyl)pyridin-2-yl]carbonyl}-3-{[5-(trifluoromethyl)thiophen-3-yl]oxy}piperidin-3-yl]carbonyl}-1,2,3,4-tetrahydroisoquinolin-1-yl)butanoic acid] was run?
**A.** 1 to 100 nM

**Q.** CCC[C@H]1N(C(=O)c2ncccc2C(F)(F)F)CCC[C@@]1(Oc1csc(C(F)(F)F)c1)C(=O)N1CCc2cc(Cl)ccc2C1C(N)=O (stereo partly drawn) [Compound A75, 6-chloro-2-{[(2R,3S)-2-propyl-1-{[3-(trifluoromethyl)pyridin-2-yl]carbonyl}-3-{[5-(trifluoromethyl)thiophen-3-yl]oxy}piperidin-3-yl]carbonyl}-1,2,3,4-tetrahydroisoquinoline-1-carboxamide] was tested. Which IC50 did it give?
**A.** 1 to 100 nM

**Q.** Which IC50 does the source give for CCC[C@H]1N(C(=O)c2ncccc2C(F)(F)F)CCC[C@@]1(Oc1csc(C(F)(F)F)c1)C(=O)N1CCc2cc(Cl)ccc2C1C#N (stereo partly drawn) [Compound A76, 6-chloro-2-{[(2R,3S)-2-propyl-1-{[3-(trifluoromethyl)pyridin-2-yl]carbonyl}-3-{[5-(trifluoromethyl)thiophen-3-yl]oxy}piperidin-3-yl]carbonyl}-1,2,3,4-tetrahydroisoquinoline-1-carbonitrile] here?
**A.** 101 to 20000 nM

**Q.** For CCC[C@H]1N(C(=O)c2ncccc2C(F)(F)F)CCC[C@@]1(Oc1csc(C(F)(F)F)c1)C(=O)N1CCc2cc(Cl)ccc2C1C(N)=O (stereo partly drawn) [Compound A77, 6-chloro-2-{[(2R,3S)-2-propyl-1-{[3-(trifluoromethyl)pyridin-2-yl]carbonyl}-3-{[5-(trifluoromethyl)thiophen-3-yl]oxy}piperidin-3-yl]carbonyl}-1,2,3,4-tetrahydroisoquinoline-1-carboxamide], which IC50 is on record?
**A.** 1 to 100 nM

**Q.** With CCC[C@H]1N(C(=O)c2ncccc2C(F)(F)F)CCC[C@@]1(Oc1csc(C(F)(F)F)c1)C(=O)N1CCc2cc(Cl)ccc2C1C#N (stereo partly drawn) [Compound A78, 6-chloro-2-{[(2R,3S)-2-propyl-1-{[3-(trifluoromethyl)pyridin-2-yl]carbonyl}-3-{[5-(trifluoromethyl)thiophen-3-yl]oxy}piperidin-3-yl]carbonyl}-1,2,3,4-tetrahydroisoquinoline-1-carbonitrile] as the compound, how does the IC50 read?
**A.** 101 to 20000 nM

**Q.** With CCC[C@H]1N(C(=O)c2ncccc2C(F)(F)F)CCC[C@@]1(Oc1csc(C(F)(F)F)c1)C(=O)N1CCc2cc(Cl)ccc2[C@H]1CCC(=O)NC#N [Compound A79, 3-[(1R)-6-chloro-2-{[(2R,3S)-2-propyl-1-{[3-(trifluoromethyl)pyridin-2-yl]carbonyl}-3-{[5-(trifluoromethyl)thiophen-3-yl]oxy}piperidin-3-yl]carbonyl}-1,2,3,4-tetrahydroisoquinolin-1-yl]-N-cyanopropanamide] as the compound, how does the IC50 read?
**A.** 1 to 100 nM

**Q.** How did the IC50 turn out when CCC[C@H]1N(C(=O)c2ncccc2C(F)(F)F)CCC[C@@]1(Oc1csc(C(F)(F)F)c1)C(=O)N1CCc2cc(Cl)ccc2[C@@H]1CCC(=O)NC#N [Compound A80, 3-[(1S)-6-chloro-2-{[(2R,3S)-2-propyl-1-{[3-(trifluoromethyl)pyridin-2-yl]carbonyl}-3-{[5-(trifluoromethyl)thiophen-3-yl]oxy}piperidin-3-yl]carbonyl}-1,2,3,4-tetrahydroisoquinolin-1-yl]-N-cyanopropanamide] was run?
**A.** 1 to 100 nM

**Q.** How did the IC50 turn out when CCC[C@H]1N(C(=O)c2ncccc2C(F)(F)F)CCC[C@@]1(Oc1csc(C(F)(F)F)c1)C(=O)N1CCc2cc(Cl)ccc2C1CC(=O)N1CCNC(=O)C1 (stereo partly drawn) [Compound A81, 4-[(6-chloro-2-{[(2R,3S)-2-propyl-1-{[3-(trifluoromethyl)pyridin-2-yl]carbonyl}-3-{[5-(trifluoromethyl)thiophen-3-yl]oxy}piperidin-3-yl]carbonyl}-1,2,3,4-tetrahydroisoquinolin-1-yl)acetyl]piperazin-2-one] was run?
**A.** 1 to 100 nM

**Q.** With CCC[C@H]1N(C(=O)c2ncccc2C(F)(F)F)CCC[C@@]1(Oc1csc(C(F)(F)F)c1)C(=O)N1CCc2cc(Cl)ccc2C1CC(=O)N1CCC(O)CC1 (stereo partly drawn) [Compound A82, 1-[(6-chloro-2-{[(2R,3S)-2-propyl-1-{[3-(trifluoromethyl)pyridin-2-yl]carbonyl}-3-{[5-(trifluoromethyl)thiophen-3-yl]oxy}piperidin-3-yl]carbonyl}-1,2,3,4-tetrahydroisoquinolin-1-yl)acetyl]piperidin-4-ol] as the compound, how does the IC50 read?
**A.** 1 to 100 nM

**Q.** How did the IC50 turn out when CCC[C@H]1N(C(=O)c2ncccc2C(F)(F)F)CCC[C@@]1(Oc1csc(C(F)(F)F)c1)C(=O)N1CCc2cc(N(C)C)ccc2C1 [Compound A83, N,N-dimethyl-2-{[(2R,3S)-2-propyl-1-{[3-(trifluoromethyl)pyridin-2-yl]carbonyl}-3-{[5-(trifluoromethyl)thiophen-3-yl]oxy}piperidin-3-yl]carbonyl}-1,2,3,4-tetrahydroisoquinolin-6-amine] was run?
**A.** 101 to 20000 nM

**Q.** CCC[C@H]1N(C(=O)c2ncccc2C(F)(F)F)CCC[C@@]1(Oc1csc(C(F)(F)F)c1)C(=O)N1CCc2cc(Cl)ccc2C1CC(=O)N1CCNC(=O)C1 (stereo partly drawn) [Compound A84, 4-[(6-chloro-2-{[(2R,3S)-2-propyl-1-{[3-(trifluoromethyl)pyridin-2-yl]carbonyl}-3-{[5-(trifluoromethyl)thiophen-3-yl]oxy}piperidin-3-yl]carbonyl}-1,2,3,4-tetrahydroisoquinolin-1-yl)acetyl]piperazin-2-one] was tested. Which IC50 did it give?
**A.** 1 to 100 nM

**Q.** For CCC[C@H]1N(C(=O)c2ncccc2C(F)(F)F)CCC[C@@]1(Oc1csc(C(F)(F)F)c1)C(=O)N1CCc2cc(Cl)ccc2C1CC(=O)N1CCC(O)CC1 (stereo partly drawn) [Compound A85, 1-[(6-chloro-2-{[(2R,3S)-2-propyl-1-{[3-(trifluoromethyl)pyridin-2-yl]carbonyl}-3-{[5-(trifluoromethyl)thiophen-3-yl]oxy}piperidin-3-yl]carbonyl}-1,2,3,4-tetrahydroisoquinolin-1-yl)acetyl]piperidin-4-ol], which IC50 is on record?
**A.** 1 to 100 nM

**Q.** Which IC50 does the source give for CCC[C@H]1N(C(=O)c2ncccc2C(F)(F)F)CCC[C@@]1(Oc1csc(C(F)(F)F)c1)C(=O)N1CCc2c(ccc(Cl)c2Cl)C1 [Compound A86, 5,6-dichloro-2-{[(2R,3S)-2-propyl-1-{[3-(trifluoromethyl)pyridin-2-yl]carbonyl}-3-{[5-(trifluoromethyl)thiophen-3-yl]oxy}piperidin-3-yl]carbonyl}-1,2,3,4-tetrahydroisoquinoline] here?
**A.** 101 to 20000 nM

**Q.** CCC[C@H]1N(C(=O)c2ncccc2C(F)(F)F)CCC[C@@]1(Oc1csc(C(F)(F)F)c1)C(=O)N1CCc2cc(Cl)c(Cl)cc2C1 [Compound A87, 6,7-dichloro-2-{[(2R,3S)-2-propyl-1-{[3-(trifluoromethyl)pyridin-2-yl]carbonyl}-3-{[5-(trifluoromethyl)thiophen-3-yl]oxy}piperidin-3-yl]carbonyl}-1,2,3,4-tetrahydroisoquinoline] was tested. Which IC50 did it give?
**A.** 101 to 20000 nM

**Q.** With CCC[C@H]1N(C(=O)c2ncccc2C(F)(F)F)CCC[C@@]1(Oc1csc(C(F)(F)F)c1)C(=O)N1CCc2cc(SC)ccc2C1 [Compound A88, 6-(methylsulfanyl)-2-{[(2R,3S)-2-propyl-1-{[3-(trifluoromethyl)pyridin-2-yl]carbonyl}-3-{[5-(trifluoromethyl)thiophen-3-yl]oxy}piperidin-3-yl]carbonyl}-1,2,3,4-tetrahydroisoquinoline] as the compound, how does the IC50 read?
**A.** 101 to 20000 nM

**Q.** With CCC[C@H]1N(C(=O)c2ncccc2C(F)(F)F)CCC[C@@]1(Oc1csc(C(F)(F)F)c1)C(=O)N1CCc2cc(C(N)=O)ccc2C1 [Compound A89, 2-{[(2R,3S)-2-propyl-1-{[3-(trifluoromethyl)pyridin-2-yl]carbonyl}-3-{[5-(trifluoromethyl)thiophen-3-yl]oxy}piperidin-3-yl]carbonyl}-1,2,3,4-tetrahydroisoquinoline-6-carboxamide] as the compound, how does the IC50 read?
**A.** 101 to 20000 nM

**Q.** With CCC[C@H]1N(C(=O)c2ncccc2C(F)(F)F)CCC[C@@]1(Oc1csc(C(F)(F)F)c1)C(=O)N1CCc2cc(S(C)(=O)=O)ccc2C1 [Compound A90, 6-(methylsulfonyl)-2-{[(2R,3S)-2-propyl-1-{[3-(trifluoromethyl)pyridin-2-yl]carbonyl}-3-{[5-(trifluoromethyl)thiophen-3-yl]oxy}piperidin-3-yl]carbonyl}-1,2,3,4-tetrahydroisoquinoline] as the compound, how does the IC50 read?
**A.** 101 to 20000 nM
